# Entries after “also recorded” stand apart in the source; their conditions may differ. Where a SMILES comes first, the peptide text is derived from it. Bridges are numbered along the chain shown (N, C = ends). Roman numbers before positions name the chains, in order. [ ]: non-standard residue; d: D form. The star is where a group is joined. Arachidoyl = CCCCCCCCCCCCCCCCCCCC(=O)*; Orn = NCCC[C@H](N)C(=O)O
# Legend:
# [1] = tested on: U87 MG-luc2 human glioma cells, stably expressing luc2; experiment: Luciferase gene downregulation by CPP/siRNA (siLuc2) complexes; format: cell-based; details: for Red (%) (reduction, based on remaining luminescence on U87 cells post-treatment): siRNA against luciferase
# Protocol: (§1) For assessing the siRNA mediated RNAi, CHO-GFP or U87-luc2 cells (5×10^5 cells per well) were seeded on a 24-well plate a day prior to the experiment and grown in serum containing media. On experiment day, prior to adding pre-formed complexes ( 1/10th of the final volume per well), media was replaced with fresh serum containing medium.
# (§2) For complex formation, peptide was mixed with luc2 siRNA (sense 5′-[…]-3′ (SEQ ID NO:7), antisense 5′-[…] 3′ (SEQ ID NO:8), Metabion, Germany) or with siRNA against GFP (5′-[…] (SEQ ID NO:9), 3′-[…] (SEQ ID NO:10)) in mQ water (pH 5.3-6.3) using peptide to siRNA molar ratios (MR is the ratio of peptide to siRNA) […] and incubated at RT for 1 h. For siLuc2, the final concentration in media was 25 nM and for siGFP 100 nM. Cells were co-incubated with complexes for 4 h (37° C., 5% CO2), thereafter fresh serum containing media was added and followed by further incubation (20 h for siLuc2 or 44 h for siGFP complexes). Luciferase gene downregulation was measured from cell lysates with Promega luciferase assay system (Promega, Sweden) in combination with GLOMAX 96 microplate luminometer equipped with GLOMAX 1.9.2 software (Promega). GFP was measured after treatment from cell lysates on black 96-well plates by measuring total fluorescence (Symergy MX, BioTek Instruments, USA equipped with Gen5 1.10 software). The results were normalized to the protein content of each sample (DC Protein Assay, BioRad, USA).
# Luciferase activity was determined as described in previous paragraph.
# For determination of pH dependency on the transfection efficiency, complexes were formed at MR30, incubated and diluted before addition to cells to obtain siRNA final concentration 10 nM in transfection media. HEPES buffer supplemented with 10% FBS was used as transfection media. Complexes were co-incubated with cells for 4 h and then media was replaced with cell growth media. After further 20 h incubation cells were lysed and analyzed as described previously.
# The experiment was carried out in serum containing media (10% FBS). CPP/siRNA complexes were formed at different molar ratios with siRNA concentration kept constant (50 nM in transfection media). Luminescence from luciferin-luciferase reaction was measured at 24 hours post-treatment from cell lysate. Results were normalized to protein content and luminescence values from untreated cells (100%).
# [2] = tested on: CHO stably expressing green fluorescent protein (GFP); experiment: GFP gene downregulation by CPP/siGFP complexes (lysate fluorescence, FACS, confocal); format: cell-based; details: for downregulation of GFP (average, cell lysate fluorescence): siGFP 100 nM
# Protocol: as §1, §2
# For flow cytometry analysis (FACS) analysis CHO-GFP cells were seeded and treated as described previously. After incubation, cells were washed with 1× PBS and detached from plates with trypsin-EDTA (0.25%), and re-suspended in PBS supplemented with FBS (5%) and transferred to transparent U-bottom 96-well plates. FACS was carried out with BD LSR II flow cytometer (BD Biosciences, San Jose, CA, USA) equipped with a 488 nm argon laser. Population of viable cells was determined from scatter plot: forward scattered plot (FSC) vs. side scattered light (SSC) plot. A minimum of 10,000 events from the viable cell population per sample were analyzed using BD FACS Diva software. Results are shown as the population with GFP signal lower than that of 0.1% of untreated cells.
# For confocal microscopy 2×10^5 cells per chamber were seeded on NUNC 8-chamber plates. After treatment with complexes (25 ul of pre-formed CPP/siRNA complexes added to cells in 225 ul serum containing media), incubated (48 h) and GFP florescence images of cells were captured using confocal microscope Zeiss LSM 710 and excitation at 488 nm (493-616 filter).
# [3] = Fluorescent dye (PicoGreen) intercalation and heparin displacement assay of CPP/siRNA complexes; format: physicochemical; details: for stability of complexes to heparin displacement (in words): complexes pre-formed at MR30
# Protocol: Complexation of siRNA and CPPs was assessed by Quant-iT™ PicoGreen® (PG) (Thermo Fisher Scientific, USA) assay in mQ water. Complexes were prepared as described previously, following addition of diluted PG. For detection, complexes (⅕ of volume), water (3/5) and PG (1/5) working dilution was incubated for 5 minutes and fluorescence was measured by fluorimeter (λex=492 nm, λem=535 nm) (SynergyMx, BioTek). For heparin displacement, instead of water, heparin salt solution at different concentrations were used and complexes incubated at 37° C. for 30 min before addition of PG dilution. Complex formation was also confirmed by gel electrophoresis (details in section 2.11).
# [4] = target: T1, Proteinase K (Parengyodontium album, UniProt P06873); experiment: Stability of CPP/siRNA complexes to degradation by Proteinase K; format: physicochemical; details: Proteinase K >14.4 U per well
# T1 construct: purchased Thermo Scientific, USA
# T1 sequence (P06873 106-384): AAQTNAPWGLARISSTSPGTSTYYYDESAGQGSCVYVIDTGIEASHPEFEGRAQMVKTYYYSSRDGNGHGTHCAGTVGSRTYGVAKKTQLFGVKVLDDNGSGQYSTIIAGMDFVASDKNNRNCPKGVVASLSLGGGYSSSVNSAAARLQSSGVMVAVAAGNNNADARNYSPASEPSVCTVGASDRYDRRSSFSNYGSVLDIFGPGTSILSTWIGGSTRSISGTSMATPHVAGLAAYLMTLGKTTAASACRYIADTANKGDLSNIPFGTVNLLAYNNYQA
# Protocol: To assess protection of siRNA from enzymatic degradation, after addition of PG dilution and initial measurement to set a starting point, Proteinase K (Thermo Scientific, USA) was added (>14 U/ml, 20 ul of mixture per well containing dilution of 120 ul of enzyme in 1 ml), co-incubated with complexes and fluorescence was measured over a 10 h period.
# [5] = tested on: murine red blood cells; experiment: Membrane activity assay on murine red blood cells: hemolysis; format: cell-based, mouse; details: for hemolytic activity of free peptide (in words): up to 10 uM
# Protocol: For evaluation of membrane activity of peptides, hemolysis assay was used. For this whole blood was collected from mouse (adult, BALB/c) saphenous vein into a heparinized collection tube. Blood was centrifuged (2300× g, 15 min) to separate cells (red blood cells-RBC) from the plasma. RBCs were washed according to following procedures.
# RBCs were washed with 10 ml 0.9% NaCl saline and centrifuged (600× g, 15 min). Supernatant was discarded after each centrifugation. This was repeated at least 3 times. RBCs were re-suspended in 5 ml saline and distributed equally to tubes and centrifuged (600× g, 15 min). The cells were washed and re-suspended in 2× PBS with the required pH (pH 5.5-7.5). The hemoglobin content in stocks was measured after lysis of cells with equal volume of 0.1% Triton X100 supplemented with 5% glucose. The cell suspension was diluted accordingly for each pH value to obtain similar concentration range of hemoglobin in stocks. To each 100 ul of peptide solution 100 ul of 10% glucose was added, mixed, and equal volume (200 ul) of RBC in 2× PBS were added and gently mixed. Peptide solution with RBCs was incubated at 37° C. for 1 h with gentle mixing (max 300 rpm) after which samples were centrifuged to pellet intact cells from the solution. Hemoglobin from lysed cells was determined from each sample from the supernatant on transparent 96-well plates by measuring the absorbance at 540 nm.
# Controls were incubated in similar manner as samples. As a non-hemolysis control mQ supplemented with glucose (0%) was used and for hemolytic control 0.1% TritonX-100 with glucose (100%) was used (cells are suspended in 2× PBS before addition). Final percent was calculated as follows: […]
# For hemolytic concentration determination 2× PBS at pH 7.5 was used for incubation and 1× PBS at pH 7.5 was used for washing. Everything else is as described in previous paragraph.
# [6] = tested on: CHO cells; experiment: pDNA (p-CMV-Luc2) transfection with CPP/pDNA complexes; format: cell-based; details: serum containing medium, CR1 to CR4, 24 h
# Protocol: For the pDNA transfection experiment, CPP/pDNA nanoparticles were prepared by mixing […] of plasmid (p-CMV-Luc2) with the peptide in MQ water. Charge ratios from 1 to 4 (CR, equivalent to the nitrogen-to-phosphate ratio) were used. 50,000 CHO cells were seeded 24 hr before the experiment into 24-well plates, treated with complexes for 4 h in serum-containing medium, incubated for additional 20 hr, lysed and luminescence was measured.
# [7] = tested on: organs of BALB/c mice; experiment: Gene delivery in vivo (CPP/pDNA, i.v., organ luminescence); set-up: species or system mouse; details: CR2 or CR4, 50 μg or 20 μg pDNA, 24 h
# Protocol: For in vivo pDNA delivery studies BALB/c mice were used. Each animal received a single […] intravenous (i.v.) injection of the complexes at CR2 or CR4. Two doses of pDNA […] were used. After 24 hr, the mice were sacrificed using cervical dislocation, and whole organs were harvested and snap-frozen on dry ice. The organs were homogenized, and luminescence was measured.
Compound,"Red (%) (reduction, based on remaining luminescence on U87 cells post-treatment) ([1]; CPP/siRNA complexes)","downregulation of GFP (average, cell lysate fluorescence) [2]","accessibility of siRNA in complexes (dye intercalation) ([3]; MR30, no heparin)",stability of complexes to heparin displacement (in words) [3],stability of complexes to proteinase K (in words) [4],hemolytic activity of free peptide (in words) [5],"pH dependent hemolytic activity (in words) ([5]; peptide 0.75 uM, buffer pH 5.5-7.5)","luciferase downregulation efficiency (in words) ([1]; CPP/siRNA complexes, comparison between CPPs)","downregulation of reporter gene on cells in buffer, pH dependence ([1]; HEPES buffer pH 6.0 vs 7.4, siRNA 10 nM)","IC50 ([1]; complexes formed at MR30, average, read-out: IC50 (siRNA concentration), luciferase downregulation) [nM]","cells with downregulated reporter gene (GFP signal below threshold), FACS ([2]; CHO-GFP, CPP/siGFP complexes)",GFP signal in confocal images ([2]; live cells treated with CPP/siGFP complexes),pDNA delivery / gene expression in vitro (in words) [6],reporter gene expression in organs after i.v. CPP/pDNA (in words) [7]
CCCCCCCCCCCCCCCCCCCC(=O)N[C@@H](Cc1c[nH]cn1)C(=O)N[C@@H](Cc1c[nH]cn1)C(=O)N[C@@H](Cc1c[nH]cn1)C(=O)N[C@@H](Cc1c[nH]cn1)C(=O)N[C@@H](Cc1c[nH]cn1)C(=O)N[C@@H](Cc1c[nH]cn1)C(=O)NCC(=O)NCCC[C@H](N)C(=O)N[C@H](C(=O)N[C@@H](CC(C)C)C(=O)N[C@@H](CC(C)C)C(=O)N[C@@H](CCCCN)C(=O)N[C@@H](C)C(=O)N[C@@H](CC(C)C)C(=O)N[C@@H](CCCCN)C(=O)N[C@@H](C)C(=O)N[C@@H](CC(C)C)C(=O)N[C@@H](C)C(=O)N[C@@H](CCCCN)C(=O)N[C@@H](C)C(=O)N[C@H](C(=O)N[C@@H](CC(C)C)C(N)=O)[C@@H](C)CC)[C@@H](C)CC [NF705] (I: H-[Orn]ILLKALKALAKAIL-NH2 / II: Arachidoyl-HHHHHHG; amide I:1-II:C),52,lower efficiency than H6-C20,low accessibility of siRNA,significantly higher stability to heparin displacement than NF70 peptide and even NF72 peptide,formed the most stable complexes with siRNA resistant to proteinase K,significantly higher,markedly hemolytic already at pH 7.5,–,–,–,–,–,–,–
"CCCCCCCCCCCCCCCCCC(=O)N[C@@H](C)C(=O)NCC(=O)N[C@@H](Cc1ccc(O)cc1)C(=O)N[C@@H](CC(C)C)C(=O)N[C@@H](CC(C)C)C(=O)NCC(=O)N[C@@H](CCCCNC(=O)[C@H](CCCCNC(=O)[C@H](CCCCNC(=O)CCC(=O)NCCN(C)CCNc1ccnc2cc(C(F)(F)F)ccc12)NC(=O)CCC(=O)NCCN(C)CCNc1ccnc2cc(C(F)(F)F)ccc12)NC(=O)[C@H](CCCCNC(=O)CCC(=O)NCCN(C)CCNc1ccnc2cc(C(F)(F)F)ccc12)NC(=O)CCC(=O)NCCN(C)CCNc1ccnc2cc(C(F)(F)F)ccc12)C(=O)N[C@H](C(=O)N[C@@H](CC(N)=O)C(=O)N[C@@H](CC(C)C)C(=O)N[C@@H](CCCCN)C(=O)N[C@@H](C)C(=O)N[C@@H](CC(C)C)C(=O)N[C@@H](C)C(=O)N[C@@H](C)C(=O)N[C@@H](CC(C)C)C(=O)N[C@@H](C)C(=O)N[C@@H](CCCCN)C(=O)N[C@@H](CCCCN)C(=O)N[C@H](C(=O)N[C@@H](CC(C)C)C(N)=O)[C@@H](C)CC)[C@@H](C)CC [PF6, reference compound]",84,highest,–,only about a half of that in NF55/siRNA complexes,significantly lower stability to longer exposure to enzyme,most hemolytic,–,most efficient peptides even at low MRs,pH-dependent,10.4,approximately 70%,detected GFP signal was the lowest,–,–
"HYHHGO^eILLKALKALAKAIL [NF725, group H3; C18 saturated fatty acid on N-terminus; C-terminally amidated]",60,–,–,–,–,–,–,–,–,–,–,–,promising vectors for pDNA transfection,high gene expression level in liver; also recorded: higher at CR4 than CR2

# Reference: patent US12385042B2, “Cell-penetrating peptides” (VECTIOPEP OÜ, priority 2019, dated 2025)
